Results on 24 molecules are retold here after US20260226084A1, “DUAL RAF AND TUBULIN INHIBITORS AND METHODS OF USE THEREOF” (Deciphera Pharmaceuticals, LLC, priority 2023, published 2026).

Structures are written as SMILES. Where only a bound is given, the exact number is not on record here.

In experiment [1] the test system is MiaPaca-2 cells. In words: MiaPaca-2 Cell Proliferation Assay. Type of experiment: cell-based. As to conditions: Homo sapiens, MIA PaCa-2, MiaPaca-2 cells; Table 2; read-out: Inhibition of cell proliferation in MiaPaca-2 (IC50 class). The gist of the method:
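Viability was read as resazurin fluorescence (540 nm excitation, 600 nm emission) after 5–6 h with dye. Compounds were tested as serial dilutions in triplicate, with IC50 derived from the dose–response.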

For experiment [2], the system named is Pa16c cells. In words: Pa16c Cell Proliferation Assay. Type of experiment: cell-based. As to conditions: Table 2, read-out: Inhibition of cell proliferation in Pa16c (IC50 class). The gist of the method: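 Mouse Pa16c cells, 750/well in DMEM with 10% FBS, exposed to serially diluted compound in triplicate for 67 to 72 h at 37° C. Viability read by resazurin reduction over a further 18 to 24 h (ex 540/em 600 nm). IC50 calculated from the dose-response.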

The target of experiment [3] is T1, B-Raf kinase (SEQ ID NO: 1) (Homo sapiens, UniProt P15056).
T1 construct: GST (N); purchased Sigma
T1 sequence (P15056 416-766): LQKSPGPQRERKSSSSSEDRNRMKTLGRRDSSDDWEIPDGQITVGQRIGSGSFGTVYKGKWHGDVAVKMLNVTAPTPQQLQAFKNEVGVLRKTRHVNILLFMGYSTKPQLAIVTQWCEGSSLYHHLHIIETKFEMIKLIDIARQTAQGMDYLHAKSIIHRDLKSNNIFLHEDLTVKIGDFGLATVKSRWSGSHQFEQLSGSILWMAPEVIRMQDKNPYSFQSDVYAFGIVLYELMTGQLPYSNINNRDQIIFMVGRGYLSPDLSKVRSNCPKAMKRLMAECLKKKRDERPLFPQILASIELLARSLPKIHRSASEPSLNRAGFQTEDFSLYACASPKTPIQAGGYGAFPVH
Description: Biochemical Assay for B-Raf (coupled pyruvate kinase/lactate dehydrogenase assay). As to conditions: 1 mM ATP; read-out: BRAF (inhibition of biochemical activity, IC50).

For experiment [4], the system named is HCT-116 cells. In words: HCT-116 Cell Proliferation Assay. As to conditions: Homo sapiens, HCT-116, HCT-116 cells; Table 2; read-out: Inhibition of cell proliferation in HCT-116 (IC50 class). The class given is cell-based. The gist of the method: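 HCT-116 cells, 375/well in McCoy's 5A with 10% FBS, exposed to serial compound dilutions in triplicate for 67 to 72 hours at 37 °C. Viability read by resazurin fluorescence (ex 540/em 600 nm) after a further 4 to 5 h; IC50 values calculated.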

For experiment [5], the system named is HPAF-II cells. Description: HPAF-II Cell Proliferation Assay. As to conditions: Homo sapiens, HPAF-II, HPAF-II cells; Table 2; read-out: Inhibition of cell proliferation in HPAF-II (IC50 class). Type of experiment: cell-based. The gist of the method:
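HPAF-II cells (750/well) in complete MEM with 10% FBS were exposed to serially diluted compound in triplicate for 115–120 h at 37 °C, 5% CO2. Resazurin was then added for 18–24 h more; fluorescence (ex 540/em 600 nm) gave IC50.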

The target of experiment [6] is T2, C-Raf kinase (SEQ ID NO: 2) (Homo sapiens, UniProt P04049, Y340D/Y341D).
T2 construct: C-Raf residues 306-end; Y340D, Y341D with; GST (N); purchased Sigma
T2 sequence (P04049 307-648 Y340D/Y341D): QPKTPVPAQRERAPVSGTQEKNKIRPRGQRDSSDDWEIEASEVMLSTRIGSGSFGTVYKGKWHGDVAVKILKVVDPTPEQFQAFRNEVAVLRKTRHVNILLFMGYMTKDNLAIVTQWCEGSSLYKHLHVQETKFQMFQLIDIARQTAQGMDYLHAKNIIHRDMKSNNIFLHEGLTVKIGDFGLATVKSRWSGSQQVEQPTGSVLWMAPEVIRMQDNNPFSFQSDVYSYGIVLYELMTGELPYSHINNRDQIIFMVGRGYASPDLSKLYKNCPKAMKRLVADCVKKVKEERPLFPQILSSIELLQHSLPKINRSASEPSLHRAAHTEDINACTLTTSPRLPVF
Description: Biochemical Assay for C-Raf (coupled pyruvate kinase/lactate dehydrogenase assay). As to conditions: 1 mM ATP; read-out: CRAF (inhibition of biochemical activity, IC50).

As for `Cc1ccc(NC(=O)c2cc(C3CC3)cnn2)cc1-c1nc(NCCO)cc(-c2ccnc(NC(=O)C3CC3)c2)n1` [Example 102], the IC50 is 1000 to 10000 nM in experiment [1]; 1000 to 10000 nM in experiment [2]; less than 100 nM in experiment [3]; 500 to 1000 nM in experiment [4]; 1000 to 10000 nM in experiment [5]; less than 100 nM in experiment [6].
Turning to `Cc1ccc(NC(=O)c2cc(C(F)(F)F)cnn2)cc1-c1ccnc(-c2cnn(C)n2)c1` [Example 139], the IC50 in experiment [1] was 100 to 500 nM; in experiment [2], 500 to 1000 nM; in experiment [3], 100 to 500 nM; in experiment [4], 100 to 500 nM; in experiment [5], 100 to 500 nM; in experiment [6], less than 100 nM.
Consider `CC(=O)Nc1cc(-c2cncc(-c3cc(NC(=O)c4ccc(C(F)F)nc4)ccc3C)n2)ccn1` [Example 26], for which the IC50 in experiment [1] lay within 100 to 500 nM; in experiment [2] it was 500 to 1000 nM; in experiment [3], 100 to 500 nM; in experiment [4] it was 100 to 500 nM; in experiment [5] it was 500 to 1000 nM; in experiment [6], 100 to 500 nM.
With `Cc1ccc(NC(=O)c2cc(C(F)(F)F)cnn2)cc1-c1cc(N[C@H](C)CO)cc(-c2cc(NC(=O)C3CC3)ncn2)c1` [Example 123], the IC50 in experiment [1] was 100 to 500 nM; in experiment [2] it was less than 100 nM; in experiment [3] it was less than 100 nM; in experiment [4], 100 to 500 nM; in experiment [5] it was 100 to 500 nM; in experiment [6] it was less than 100 nM.
On to `Cc1ccc(NC(=N)c2cc(C(F)(F)F)cnn2)cc1-c1ccnc(-c2ccnc(NC(=O)C3CC3)c2)c1` [Example 86], for which the IC50 in experiment [1] was 1000 to 10000 nM; in experiment [2], 1000 to 10000 nM; in experiment [3] it was 100 to 500 nM; in experiment [4], 1000 to 10000 nM; in experiment [5] it was 1000 to 10000 nM; in experiment [6] it was less than 100 nM.
Turning to `Cc1ccc(NC(=O)c2ccc(C(F)(F)F)nn2)cc1-c1ccnc(-c2ccnc(NC(=O)C3CC3)c2)c1` [Example 19], the IC50 in experiment [1] was 100 to 500 nM; in experiment [2] it was less than 100 nM; in experiment [3], 100 to 500 nM; in experiment [4] it was 100 to 500 nM; in experiment [5], 100 to 500 nM; in experiment [6], less than 100 nM.
Take `Cc1ccc(NC(=O)c2cc(C(F)(F)F)cnn2)cc1-c1ccnc(-c2ccnc(NC(C)C)c2)c1` [Example 54]: the IC50 was 100 to 500 nM in experiment [1]; 100 to 500 nM in experiment [2]; 1000 to 10000 nM in experiment [3]; 100 to 500 nM in experiment [4]; 100 to 500 nM in experiment [5]; 1000 to 10000 nM in experiment [6].
On to `Cc1ccc(NC(=O)c2ccc(C(F)F)nn2)cc1-c1ccnc(-c2ccnc(NC(=O)C3CC3)c2)c1` [Example 58], for which the IC50 in experiment [1] was 100 to 500 nM; in experiment [2], 1000 to 10000 nM; in experiment [3], 500 to 1000 nM; in experiment [4] it was less than 100 nM; in experiment [5], 100 to 500 nM; in experiment [6] it was 100 to 500 nM.
Take `Cc1cc(F)c(NC(=O)c2cc(C(F)(F)F)cnn2)cc1-c1ccnc(-c2ccnc(NC(=O)C3CC3)c2)c1` [Example 60]: the IC50 is 1000 to 10000 nM in experiment [1]; 1000 to 10000 nM in experiment [2]; less than 100 nM in experiment [3]; 100 to 500 nM in experiment [4]; 1000 to 10000 nM in experiment [5]; less than 100 nM in experiment [6].
Take `CNc1cc(-c2cc(NC(=O)c3cc(C(F)(F)F)cnn3)ccc2C)cc(-c2ccnc(NC(=O)C3CC3)c2)n1` [Example 118]: the IC50 in experiment [1], in experiment [2], in experiment [3], in experiment [4], in experiment [5] and in experiment [6] was less than 100 nM throughout.
Regarding `Cc1ccc(NC(=O)c2cccnn2)cc1-c1ccnc(-c2ccnc(NC(=O)C3CC3)c2)c1` [Example 83], the IC50 in experiment [1] is 1000 to 10000 nM; in experiment [2], 1000 to 10000 nM; in experiment [3], 1000 to 10000 nM; in experiment [4], 1000 to 10000 nM; in experiment [5], 1000 to 10000 nM; in experiment [6] it was 100 to 500 nM.
Consider `Cc1ccc(NC(=O)c2cc(C(F)(F)F)cnn2)cc1-c1ccnc(-c2ccnc(NC(=O)C3CNCC3(F)F)c2)c1` (stereo not drawn) [Example 92, N-[3-[2-[2-[(4,4-difluoropyrrolidine-3-carbonyl)amino]-4-pyridyl]-4-pyridyl]-4-methyl-phenyl]-5-(trifluoromethyl)pyridazine-3-carboxamide], for which the IC50 in experiment [1] is 100 to 500 nM; in experiment [2] it was 500 to 1000 nM; in experiment [3] it was less than 100 nM; in experiment [4] it was 100 to 500 nM; in experiment [5], 500 to 1000 nM; in experiment [6], less than 100 nM.
As to `Cc1ccc(NC(=O)c2cc(C(F)(F)F)cnn2)cc1-c1cc(NCCO)nc(-c2ccnc(NC(=O)C3CC3)c2)c1` [Example 113], the IC50 in experiment [1], in experiment [2], in experiment [3], in experiment [4], in experiment [5] and in experiment [6] was less than 100 nM in each case.
Consider `CNCC(=O)Nc1cc(-c2cc(-c3cc(NC(=O)c4cc(C(C)(F)F)cnn4)ccc3C)ccn2)ccn1` [Example 112], for which the IC50 in experiment [1] was 100 to 500 nM; in experiment [2], 100 to 500 nM; in experiment [3] it was less than 100 nM; in experiment [4] it was 100 to 500 nM; in experiment [5], 100 to 500 nM; in experiment [6], less than 100 nM.
Turning to `Cc1cc(-c2cc(NC(=O)c3cc(C(F)(F)F)cnn3)ccc2C)cc(-c2ccnc(NC(=O)C3CC3)c2)n1` [Example 18], the IC50 in experiment [1] is 100 to 500 nM; in experiment [2] it was 100 to 500 nM; in experiment [3] it was less than 100 nM; in experiment [4], 100 to 500 nM; in experiment [5], 100 to 500 nM; in experiment [6] it was less than 100 nM.
With `Cc1ccc(NC(=O)c2cc(C(C)(F)F)cnn2)cc1-c1ccnc(-c2ccoc2)c1` [Example 149], the IC50 in experiment [1], in experiment [2], in experiment [3], in experiment [4], in experiment [5] and in experiment [6] was 100 to 500 nM in each case.
For the molecule `Cc1ccc(NC(=O)c2cc(C(C)C)cnn2)cc1-c1cncc(-c2ccnc(NC(=O)C3CC3)c2)c1` [Example 55], the IC50 in experiment [1] was 500 to 1000 nM; in experiment [2], 1000 to 10000 nM; in experiment [3], less than 100 nM; in experiment [4] it was less than 100 nM; in experiment [5] it was 100 to 500 nM; in experiment [6], less than 100 nM.
On to `Cc1ccc(NC(=O)c2cncc(C(F)(F)F)n2)cc1-c1ccnc(-c2ccnc(NC(=O)C3CC3)c2)c1` [Example 84], for which the IC50 was 1000 to 10000 nM in experiment [1]; 1000 to 10000 nM in experiment [2]; less than 100 nM in experiment [3]; 1000 to 10000 nM in experiment [4]; 1000 to 10000 nM in experiment [5]; less than 100 nM in experiment [6].
Regarding `Cc1ccc(NC(=O)c2cc(C)c(C)nn2)cc1-c1ccnc(-c2ccnc(NC(=O)C3CC3)c2)c1` [Example 97], the IC50 was 1000 to 10000 nM in experiment [1]; 1000 to 10000 nM in experiment [2]; less than 100 nM in experiment [3]; 1000 to 10000 nM in experiment [4]; 1000 to 10000 nM in experiment [5]; less than 100 nM in experiment [6].
Take `Cc1ccc(NC(=O)c2cc(C(F)(F)F)cnn2)cc1-c1ccnc(-c2ccnc(NCC(F)(F)F)c2)c1` [Example 53]: the IC50 in experiment [1] is 100 to 500 nM; in experiment [2] it was 1000 to 10000 nM; in experiment [3], 500 to 1000 nM; in experiment [4], 100 to 500 nM; in experiment [5] it was 100 to 500 nM; in experiment [6], 500 to 1000 nM.
As to `Cc1ccc(NC(=O)c2cc(C3CC3)cnn2)cc1-c1cc(N[C@H](C)CO)nc(-c2cn[nH]c2)c1` [Example 117], the IC50 in experiment [1], in experiment [2], in experiment [3], in experiment [4], in experiment [5] and in experiment [6] was less than 100 nM in each case.
Turning to `Cc1cnc(NC(=O)c2cc(C(F)(F)F)cnn2)cc1-c1ccnc(-c2ccnc(NC(=O)C3CC3)c2)c1` [Example 36], the IC50 in experiment [1] is 1000 to 10000 nM; in experiment [2] it was 1000 to 10000 nM; in experiment [3], less than 100 nM; in experiment [4], 100 to 500 nM; in experiment [5] it was 1000 to 10000 nM; in experiment [6], less than 100 nM.
Consider `Cc1ccc(NC(=O)c2cc(C(C)C)cnn2)cc1-c1cncc(-c2cc(NC(=O)C3CC3)ncn2)c1` [Example 64], for which the IC50 is 500 to 1000 nM in experiment [1]; 100 to 500 nM in experiment [2]; less than 100 nM in experiment [3]; 100 to 500 nM in experiment [4]; 100 to 500 nM in experiment [5]; less than 100 nM in experiment [6].
For `COCC(=O)Nc1cc(-c2nccc(-c3cc(NC(=O)c4cc(C(F)(F)F)cnn4)ccc3C)n2)ccn1` [Example 10], the IC50 is 1000 to 10000 nM in experiment [1]; 1000 to 10000 nM in experiment [2]; less than 100 nM in experiment [3]; 500 to 1000 nM in experiment [4]; 500 to 1000 nM in experiment [5]; less than 100 nM in experiment [6].
